# Laboratory results published in patent US7973066B2, “Pyrrolo[1,2-A]imidazoledione effective in the treatment of peripheral neurotoxicity induced by chemotherapeutic agents” (Neurotune AG, priority 2006, dated 2011).
# pIC50: −log10 of the molar value. Where two headings read alike, the source gives them in different places.
# Experiments:
# [1] = tested on: Oxaliplatin-induced peripheral neuropathy; test: Oxaliplatin-induced peripheral neuropathy, paw pressure test; type: in vivo, rat; settings: for prevention of oxaliplatin-induced decrease of mechanical threshold: 100 mg/kg p.o. once daily starting three days before oxaliplatin, tested every week 30 min after administration; for effects on vehicle treated animals (paw pressure): vehicle treated rats
# Experimental: The cumulative dose of oxliplatin was 36 mg/kg (Cavaletti G. et al. 2001, Eur. J. Cancer 37:2457-2463).
# (§1) When a chemotherapeutic injection was to be given on a same day as behavioural testing, rats were injected after the measurement was taken.
# (§2) Paw mechanical iper-sensitivity was determined using a Randall & Selitto apparatus exerting a force that increases at constant rate (32 g/s) in agreement with Leighton G. E. et al. (1988, Br. J. Pharmacol 93:553-560). The stimulus at which rats withdraw the paw was evaluated before and at different times after drugs treatment. Results represent the mean of mechanical thresholds expressed as grams. To avoid any possible damage to the animal paw the maximum applied force was fixed at 240 g.
# Maximum hyperalgesia was obtained after a two weeks period of treatment. […] Compound administration was performed in the same days of chemotherapeutic injection.
# [2] = tested on: HT29 human colon carcinoma cell line; test: In vitro cytotoxicity and combination studies, ATPlite; settings: for pIC50: read-out: cytotoxic effect IC50
# Experimental: In order to verify if the use of NiK-13317 for the treatment of CIPN would not affect the efficacy of anticancer treatments, the effect of NiK-13317 on cytotoxicity of known anticancer drugs was examined in vitro using HT29 human colon carcinoma cell line.
# After 72 hours, cells were lysed and cell metabolic activity was quantified with ATPlite kit (Perkin Elmer Life Science) following manufacturer's recommendations. The ATP present in all metabolically active cells catalyses a reaction of transformation of D-luciferin by Luciferase, producing a luminescent signal measured using VICTOR^3™ Multi Label Reader (Perkin Elmer). Results were expressed as percentage of luminescence produced (i.e. ATP produced) compared to the control. Complete concentration-response curves with anticancer drugs were constructed in order to identify the concentrations producing a submaximal and a maximal cytotoxic effect, to be utilized for combination experiments.
# [3] = tested on: Vincristine-induced peripheral neuropathy; test: Vincristine-induced peripheral neuropathy, paw pressure test; type: in vivo, rat; settings: for anti-hyperalgesic effect on mechanical hyperalgesia after repeated treatment: 30 mg/kg i.p. daily during last five days of vincristine, 1 hr and 12 hr after last administration; for reversal of vincristine mechanical hyper-sensitivity (paw pressure threshold): 100 mg/kg p.o., 30 and 60 min after treatment, 4 days after last vincristine injection; for activity on vehicle treated animals (paw pressure): vehicle treated rats, p.o.
# Experimental: Vincristine was administered i.v. (150 μg/kg), every two days until a cumulative dose of 750 μg/kg was reached. Paw mechanical iper-sensitivity was evaluated 4 days after the last vincristine injection (Marchand F. et al. 2003, Brain Res. 980:117-120).
# as §1, §2
# [4] = tested on: Taxol-induced peripheral neuropathy; test: Taxol-induced peripheral neuropathy, paw pressure test; type: in vivo, rat; settings: for anti-hyperalgesic activity, i.v.: 3 mg/kg i.v.; for anti-hyperalgesic activity, i.v. / anti-hyperalgesic activity, i.p.: 30-90 min from administration; for anti-hyperalgesic activity, i.p.: 30 mg/kg i.p.; for rat paw pressure threshold, anti-hyperalgesic effect: 100 mg/kg given orally, 30 and 60 min after treatment
# Experimental: Taxol neuropathy was induced by i.p. administration (0.5 mg/kg) once a day, on days 1, 3, 5, 8. Cumulative taxol dose was 2 mg/kg. The pharmacological test was performed 14-18 days after the last taxol injection (Polomano R. C. et al. 2001, Pain 94:293-304).
# as §1, §2
# [5] = tested on: CIPN; settings: cancer patients with CIPN; cited from earlier work
# [6] = tested on: CIPN; settings: phase III, 10 weeks of therapy; cited from earlier work
# [7] = tested on: cisplatin-induced pain syndrome; settings: 51 patients, maximum dose 100 mg/day; cited from earlier work
smiles,measurement,setting,value
O=C1[O][Pt]2([NH][C@@H]3CCCC[C@H]3[NH]2)[O]C1=O [oxaliplatin],paw pressure threshold change caused by repeated oxaliplatin,"[1]; oxaliplatin 2.4 mg/kg i.p., 5 consecutive days every week, evident from first week",decrease in paw pressure threshold
same,pIC50,"[2]; HT29 cells, 72 hours, ATPlite",4.44
NCC1(CC(=O)O)CCCCC1 [gabapentin],anti-hyperalgesic effect on mechanical hyperalgesia after repeated treatment,[3],no significant effects
same,reversal of vincristine mechanical hyper-sensitivity (paw pressure threshold),[3],lacked of any significant effects
same,activity on vehicle treated animals (paw pressure),[3],devoid of any significant activity
same,"anti-hyperalgesic activity, i.v.",[4],lacked of any significant effect
same,"anti-hyperalgesic activity, i.p.",[4],lacked of any significant effect
same,"rat paw pressure threshold, anti-hyperalgesic effect",[4],not able to induce any anti-hyperalgesic effect
same,prevention of oxaliplatin-induced decrease of mechanical threshold,[1],only a moderated anti-hyperalgesic effect
same,"anti-hyperalgesic activity, pharmacodynamic experiment, 30 min","[1]; after 3 weeks of oxaliplatin, p.o., 30 min after treatment",only a moderate effect
same,effects on vehicle treated animals (paw pressure),[1]; p.o.,Neither NiK-13317 or gabapentin induced significant effects
same,adverse side effects such as nystagmus and dizziness,[5],significant more adverse side effects
same,"reduction of pain intensity (NRS score), sensory neuropathy (ECOG rating), and other adverse events",[5],failed to reduce
CC[C@]1(O)C[C@H]2CN(CCc3c([nH]c4ccccc34)[C@@](C(=O)OC)(c3cc4c(cc3OC)N(C=O)[C@H]3[C@@](O)(C(=O)OC)[C@H](OC(C)=O)[C@]5(CC)C=CCN6CC[C@]43[C@@H]65)C2)C1 [vincristine],mechanical hyperalgesia produced by vincristine treatment (reduction of paw pressure threshold),"[3]; vincristine 150 μg/kg i.v. every two days, cumulative 750 μg/kg",marked and prolonged mechanical hyperalgesia
same,concentration of maximal cytotoxic effect,"[2]; HT29 cells, 72 hours, ATPlite",100 nM
same,pIC50,"[2]; Homo sapiens, HT-29, 72 h",8.15
Nc1nnc(-c2cccc(Cl)c2Cl)c(N)n1 [lamotrigine],reduction of CIPN,[6],failed to reduce CIPN
CC(=O)O[C@H]1C(=O)[C@@]2(C)[C@H]([C@H](OC(=O)c3ccccc3)[C@]3(O)C[C@H](OC(=O)[C@H](O)[C@@H](NC(=O)c4ccccc4)c4ccccc4)C(C)=C1C3(C)C)[C@]1(OC(C)=O)CO[C@@H]1C[C@@H]2O [taxol],mechanical hyperalgesia produced by taxol treatment,"[4]; taxol 0.5 mg/kg i.p. on days 1, 3, 5, 8",significant mechanical hyperalgesia
same,concentration of maximal cytotoxic effect,"[2]; HT29 cells, 72 hours, ATPlite",100 nM
same,pIC50,"[2]; Homo sapiens, HT-29, 72 h",8.10
"Cc1ccc(N2C(=O)CN3C(=O)CCC32)cc1 (single isomer, unassigned) [compound of formula (I), 1-(4-Methylphenyl)dihydro-1H-pyrrolo[1,2-a]imidazole-2,5(3H,6H)-dione]",development of tolerance (general statement),"[3]; rat, in vivo",not to develop tolerance
CNCCC=C1c2ccccc2CCc2ccccc21 [nortriptyline],efficacy over placebo on cisplatin-induced pain syndrome,[7],lack of nortriptyline efficacy over placebo
"Cc1ccc(N2C(=O)CN3C(=O)CCC32)cc1 (racemic) [NiK-13317, racemic 1-(4-Methylphenyl)dihydro-1H-pyrrolo[1,2-a]imidazole-2,5(3H,6H)-dione]",anti-hyperalgesic effect on mechanical hyperalgesia after repeated treatment,[3],statistically significant (p<0.01) anti-hyperalgesic effect
same,development of tolerance after repeated treatment,"[3]; 30 mg/kg i.p. daily, 5 days",without development of tolerance
same,anti-hyperalgesic effect 23 hr after the 4th administration,"[3]; 30 mg/kg i.p. daily, 23 hr after 4th administration (1 hr before last injection)",statistically significant effect (p<0.05)
same,reversal of vincristine mechanical hyper-sensitivity (paw pressure threshold),[3],pronounced significant reversal
same,activity on vehicle treated animals (paw pressure),[3],devoid of any significant activity
same,"anti-hyperalgesic activity, i.v.",[4],active
same,"anti-hyperalgesic activity, i.p.",[4],active
same,"rat paw pressure threshold, anti-hyperalgesic effect",[4],significantly increased
same,prevention of oxaliplatin-induced decrease of mechanical threshold,[1],completely prevented
same,"anti-hyperalgesic activity, pharmacodynamic experiment, 8 hr","[1]; after 3 weeks of oxaliplatin, 100 mg/kg p.o., 8 hr after treatment",still active
same,"anti-hyperalgesic activity, pharmacodynamic experiment, 30 min and 4 hr","[1]; after 3 weeks of oxaliplatin, given orally, 30 min and 4 hr after administration",active
same,effects on vehicle treated animals (paw pressure),[1]; p.o.,Neither NiK-13317 or gabapentin induced significant effects
